Measurements from patent US20220273683A1, “BORON-CONTAINING SMALL MOLECULES” (Bill & Melinda Gates Foundation, priority 2016, published 2022).
Values after ≈ are worked out from the molar mass of the structure shown.

Columns and labels:
[1] = test system: Staphylococcus aureus, MRSA (ATCC 33591); assay: Antibacterial MIC assay (microbroth dilution, CLSI); assay type: cell-based; conditions: 35° C., 16-20 hours
Text: (§1) All MIC testing of bacteria followed the Clinical and Laboratory Standards Institute (CLSI) guidelines for antimicrobial testing of aerobic bacteria (Methods for Dilution Antimicrobial Susceptibility Tests for Bacteria that Grow Aerobically; Approved Standard—Tenth Edition, M07-A10; Performance Standards for Antimicrobial Susceptibility Testing; Twenty-fifth Informational Supplement, M100-S25).
(§2) Briefly, the microbroth dilution MIC method was used to quantitatively measure the in vitro antibacterial activity of a compound against a given bacterial isolate. The following bacterial strains were evaluated: Staphylococcus aureus, MRSA (ATCC 33591) and Streptococcus pneumoniae (ATCC 49619). Bacteria were grown in cation-adjusted Mueller-Hinton broth, with additions as required per species growth requirements (e.g. 3% lysed horse blood for fastidious organisms such as S. pneumoniae). A direct colony suspension in saline was prepared from colonies on an overnight agar plate to achieve a turbidity equivalent to 0.5 McFarland standard, which was subsequently diluted into the assay plate to achieve 5×10^5 CFU/mL. Assays plates were prepared by 2-fold dilution of compound across the plate and included a positive growth control.

[2] = test system: Streptococcus pneumoniae (ATCC 49619); assay: as above; assay type: cell-based; conditions: 35° C., 16-20 hours; for MIC Streptococcus pneumoniae (ATCC 49619): 3% lysed horse blood
Text: as §1, §2

SMILES	MIC ([1]; Staphylococcus aureus) [µg/mL]	MIC ([2]; Streptococcus pneumoniae, ATCC49619, 3% lysed horse blood) [µg/mL]	MIC Staphylococcus aureus, MRSA (ATCC 33591) [1]	MIC Streptococcus pneumoniae (ATCC 49619) [2]
C[C@@H]1CC[C@@]23CCC(=O)[C@H]2[C@]1(C)[C@H](OC(=O)COc1ccc2c(c1F)B(O)OC2)C[C@@](C)(/C=C/C(=O)NNC(=O)OC(C)(C)C)[C@@H](O)[C@@H]3C [Compound 17, tert-butyl 2-((E)-3-((3aR,4R,5R,7S,8S,9R,9aS,12R)-5-(2-((7-fluoro-1-hydroxy-1,3-dihydrobenzo[c][1,2]oxaborol-6-yl)oxy)acetoxy)-8-hydroxy-4,7,9,12-tetramethyl-3-oxodecahydro-4,9a-propanocyclopenta[8]annulen-7-yl)acryloyl)hydrazine-1-carboxylate]	4 to 32 (≈ 5.83 to 46.6 µM)	0.5 to 2 (≈ 0.728 to 2.91 µM)	–	–
CC(C)ON=C[C@]1(C)C[C@@H](OC(=O)COc2ccc3c(c2F)B(O)OC3)[C@]2(C)[C@H](C)CC[C@]3(CCC(=O)[C@H]32)[C@@H](C)[C@@H]1O [Compound 46, (3aR,4R,5R,7S,8S,9R,9aS,12R)-8-hydroxy-7-((isopropoxyimino)methyl)-4,7,9,12-tetramethyl-3-oxodecahydro-4,9a-propanocyclopenta[8]annulen-5-yl2-((7-fluoro-1-hydroxy-1,3-dihydrobenzo[c][1,2]oxaborol-6-yl)oxy)acetate]	–	–	B (0.5-2 is B)	C (4-32 is C)
C[C@@H]1CC[C@@]23CCC(=O)[C@H]2[C@]1(C)[C@H](OC(=O)COc1ccc2c(c1F)B(O)OC2)C[C@@](C)(CCO)[C@@H](O)[C@@H]3C [Compound 25, (3aR,4R,5R,7R,8S,9R,9aS,12R)-8-hydroxy-7-(2-hydroxyethyl)-4,7,9,12-tetramethyl-3-oxodecahydro-4,9a-propanocyclopenta[8]annulen-5-yl2-((7-fluoro-1-hydroxy-1,3-dihydrobenzo[c][1,2]oxaborol-6-yl)oxy)acetate]	–	–	B (0.5-2 is B)	C (4-32 is C)
C[C@@H]1CC[C@@]23CCC(=O)[C@H]2[C@]1(C)[C@H](OC(=O)COc1ccc2c(c1F)B(O)OC2)C[C@@](C)(CO)[C@@H](O)[C@@H]3C [Compound 23, (3aR,4R,5R,7S,8S,9R,9aS,12R)-8-hydroxy-7-(hydroxymethyl)-4,7,9,12-tetramethyl-3-oxodecahydro-4,9a-propanocyclopenta[8]annulen-5-yl2-((7-fluoro-1-hydroxy-1,3-dihydrobenzo[c][1,2]oxaborol-6-yl)oxy)acetate]	–	–	A (MIC of ≤0.25 is A)	C (4-32 is C)
CNC[C@]1(C)C[C@@H](OC(=O)COc2ccc3c(c2F)B(O)OC3)[C@]2(C)[C@H](C)CC[C@]3(CCC(=O)[C@H]32)[C@@H](C)[C@@H]1O [Compound 32, (3aR,4R,5R,7S,8S,9R,9aS,12R)-8-hydroxy-4,7,9,12-tetramethyl-7-((methylamino)methyl)-3-oxodecahydro-4,9a-propanocyclopenta[8]annulen-5-yl2-((7-fluoro-1-hydroxy-1,3-dihydrobenzo[c][1,2]oxaborol-6-yl)oxy)acetate]	–	–	B (0.5-2 is B)	C (4-32 is C)
C[C@@H]1CC[C@@]23CCC(=O)[C@H]2[C@]1(C)[C@H](OC(=O)COc1ccc2c(c1F)B(O)OC2)C[C@@](C)(CCl)[C@@H](O)[C@@H]3C [Compound 11, (3aR,4R,5R,7R,8S,9R,9aS,12R)-7-(chloromethyl)-8-hydroxy-4,7,9,12-tetramethyl-3-oxodecahydro-4,9a-propanocyclopenta[8]annulen-5-yl2-((7-fluoro-1-hydroxy-1,3-dihydrobenzo[c][1,2]oxaborol-6-yl)oxy)acetate]	–	–	A (MIC of ≤0.25 is A)	B (0.5-2 is B)
C[C@@H]1CC[C@@]23CCC(=O)[C@H]2[C@]1(C)[C@H](OC(=O)COc1ccc2c(c1F)B(O)OC2)C[C@@](C)(CCC(=O)N1CCC(O)C1)[C@@H](O)[C@@H]3C (stereo partly drawn) [Compound 7, (3aR,4R,5R,7R,8S,9R,9aS,12R)-8-hydroxy-7-(3-(3-hydroxypyrrolidin-1-yl)-3-oxopropyl)-4,7,9,12-tetramethyl-3-oxodecahydro-4,9a-propanocyclopenta[8]annulen-5-yl2-((7-fluoro-1-hydroxy-1,3-dihydrobenzo[c][1,2]oxaborol-6-yl)oxy)acetate]	–	–	C (4-32 is C)	B (0.5-2 is B)
C[C@@H]1CC[C@@]23CCC(=O)[C@H]2[C@]1(C)[C@H](OC(=O)COc1ccc2c(c1F)B(O)OC2)C[C@@](C)(C[S+](C)[O-])[C@@H](O)[C@@H]3C (stereo partly drawn) [Compound 30, (3aR,4R,5R,7R,8S,9R,9aS,12R)-8-hydroxy-4,7,9,12-tetramethyl-7-((methylsulfinyl)methyl)-3-oxodecahydro-4,9a-propanocyclopenta[8]annulen-5-yl2-((7-fluoro-1-hydroxy-1,3-dihydrobenzo[c][1,2]oxaborol-6-yl)oxy)acetate]	–	–	B (0.5-2 is B)	C (4-32 is C)
CNC(=O)/C=C/[C@]1(C)C[C@@H](OC(=O)COc2ccc3c(c2F)B(O)OC3)[C@]2(C)[C@H](C)CC[C@]3(CCC(=O)[C@H]32)[C@@H](C)[C@@H]1O [Compound 15, (3aR,4R,5R,7S,8S,9R,9aS,12R)-8-hydroxy-4,7,9,12-tetramethyl-7-((E)-3-(methylamino)-3-oxoprop-1-en-1-yl)-3-oxodecahydro-4,9a-propanocyclopenta[8]annulen-5-yl2-((7-fluoro-1-hydroxy-1,3-dihydrobenzo[c][1,2]oxaborol-6-yl)oxy)acetate]	–	–	B (0.5-2 is B)	B (0.5-2 is B)
CC(=O)NC[C@]1(C)C[C@@H](OC(=O)COc2ccc3c(c2F)B(O)OC3)[C@]2(C)[C@H](C)CC[C@]3(CCC(=O)[C@H]32)[C@@H](C)[C@@H]1O [Compound 48, (3aR,4R,5R,7S,8S,9R,9aS,12R)-7-(acetamidomethyl)-8-hydroxy-4,7,9,12-tetramethyl-3-oxodecahydro-4,9a-propanocyclopenta[8]annulen-5-yl2-((7-fluoro-1-hydroxy-1,3-dihydrobenzo[c][1,2]oxaborol-6-yl)oxy)acetate]	–	–	B (0.5-2 is B)	C (4-32 is C)
CONC(=O)/C=C/[C@]1(C)C[C@@H](OC(=O)COc2ccc3c(c2F)B(O)OC3)[C@]2(C)[C@H](C)CC[C@]3(CCC(=O)[C@H]32)[C@@H](C)[C@@H]1O [Compound 16, (3aR,4R,5R,7S,8S,9R,9aS,12R)-8-hydroxy-7-((E)-3-(methoxyamino)-3-oxoprop-1-en-1-yl)-4,7,9,12-tetramethyl-3-oxodecahydro-4,9a-propanocyclopenta[8]annulen-5-yl2-((7-fluoro-1-hydroxy-1,3-dihydrobenzo[c][1,2]oxaborol-6-yl)oxy)acetate]	–	–	C (4-32 is C)	B (0.5-2 is B)
CSC[C@]1(C)C[C@@H](OC(=O)COc2ccc3c(c2F)B(O)OC3)[C@]2(C)[C@H](C)CC[C@]3(CCC(=O)[C@H]32)[C@@H](C)[C@@H]1O [Compound 29, (3aR,4R,5R,7R,8S,9R,9aS,12R)-8-hydroxy-4,7,9,12-tetramethyl-7-((methylthio)methyl)-3-oxodecahydro-4,9a-propanocyclopenta[8]annulen-5-yl2-((7-fluoro-1-hydroxy-1,3-dihydrobenzo[c][1,2]oxaborol-6-yl)oxy)acetate]	–	–	A (MIC of ≤0.25 is A)	C (4-32 is C)
C[C@@H]1CC[C@@]23CCC(=O)[C@H]2[C@]1(C)[C@H](OC(=O)COc1ccc2c(c1F)B(O)OC2)C[C@@](C)(Cc1ccccc1)[C@@H](O)[C@@H]3C [Compound 10, (3aR,4R,5R,7R,8S,9R,9aS,12R)-7-benzyl-8-hydroxy-4,7,9,12-tetramethyl-3-oxodecahydro-4,9a-propanocyclopenta[8]annulen-5-yl2-((7-fluoro-1-hydroxy-1,3-dihydrobenzo[c][1,2]oxaborol-6-yl)oxy)acetate]	–	–	A (MIC of ≤0.25 is A)	B (0.5-2 is B)
C[C@@H]1CC[C@@]23CCC(=O)[C@H]2[C@]1(C)[C@H](OC(=O)COc1ccc2c(c1F)B(O)OC2)C[C@@](C)(/C=C/C(=O)NN)[C@@H](O)[C@@H]3C [Compound 18, (3aR,4R,5R,7S,8S,9R,9aS,12R)-7-((E)-3-hydrazinyl-3-oxoprop-1-en-1-yl)-8-hydroxy-4,7,9,12-tetramethyl-3-oxodecahydro-4,9a-propanocyclopenta[8]annulen-5-yl2-((7-fluoro-1-hydroxy-1,3-dihydrobenzo[c][1,2]oxaborol-6-yl)oxy)acetate]	–	–	C (4-32 is C)	B (0.5-2 is B)
